Counter-ions that a name gives are not always drawn.
Biological target: T1, human HSL (Homo sapiens, UniProt Q05469)
T1 construct: generate a full length human HSL ORF with a 3′-His6 tag; His6 (C); made in house; host or cells: High 5 insect cells (baculovirus, pFast-BAC)
T1 sequence (Q05469 1-1076): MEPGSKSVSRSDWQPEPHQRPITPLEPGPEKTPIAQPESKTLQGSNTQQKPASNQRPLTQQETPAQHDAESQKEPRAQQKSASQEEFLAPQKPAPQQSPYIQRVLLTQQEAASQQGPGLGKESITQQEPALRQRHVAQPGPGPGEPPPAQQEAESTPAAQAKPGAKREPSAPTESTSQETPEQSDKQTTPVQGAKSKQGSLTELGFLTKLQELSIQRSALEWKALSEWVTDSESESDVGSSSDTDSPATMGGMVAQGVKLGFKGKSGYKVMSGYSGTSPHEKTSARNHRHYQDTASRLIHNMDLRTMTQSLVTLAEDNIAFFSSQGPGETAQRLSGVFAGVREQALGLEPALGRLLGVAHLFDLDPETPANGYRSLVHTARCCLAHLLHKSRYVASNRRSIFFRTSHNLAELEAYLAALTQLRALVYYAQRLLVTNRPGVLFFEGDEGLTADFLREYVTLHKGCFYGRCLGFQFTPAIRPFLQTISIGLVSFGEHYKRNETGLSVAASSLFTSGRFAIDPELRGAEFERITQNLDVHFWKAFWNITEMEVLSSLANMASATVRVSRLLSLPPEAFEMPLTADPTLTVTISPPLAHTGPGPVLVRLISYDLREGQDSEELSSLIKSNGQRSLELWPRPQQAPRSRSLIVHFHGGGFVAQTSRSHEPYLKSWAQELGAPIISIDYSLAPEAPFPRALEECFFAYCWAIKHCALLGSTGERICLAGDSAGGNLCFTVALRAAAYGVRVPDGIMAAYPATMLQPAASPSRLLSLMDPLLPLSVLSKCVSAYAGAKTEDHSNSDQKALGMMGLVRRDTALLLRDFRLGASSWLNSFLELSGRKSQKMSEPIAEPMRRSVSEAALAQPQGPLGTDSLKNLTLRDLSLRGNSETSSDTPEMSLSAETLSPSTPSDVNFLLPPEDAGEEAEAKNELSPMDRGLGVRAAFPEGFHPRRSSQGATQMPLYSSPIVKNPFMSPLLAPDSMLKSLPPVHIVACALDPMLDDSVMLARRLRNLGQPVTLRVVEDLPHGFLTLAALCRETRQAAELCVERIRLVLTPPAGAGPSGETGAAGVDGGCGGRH
Experiment: Human Hormone-Sensitive Lipase (HSL) enzyme inhibition assay (colorimetric, DMPT substrate)
Type: biochemical
Details: read-out: HSL hum IC50
Summary of the method: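 Full-length human HSL carrying a C-terminal His6 tag was expressed in High 5 insect cells via baculovirus and purified on Ni-NTA. Compounds from 3-fold DMSO series were mixed with 1.5 mM DMPT substrate suspension in 100 mM MOPS pH 7.2 with 0.2 mg/ml fatty acid-free BSA, then enzyme (15 ug/ml) was added for 20 minutes at 37 °C. Released thiol was detected with DTNB plus SDS/Triton X-100 (15 minutes, room temperature) at 405 nm.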

| IC50 [nM] | SMILES |
| --- | --- |
| 610 | CCc1ccc(NC(=O)C2(N)CCN(S(=O)(=O)c3ccccc3S(C)(=O)=O)CC2)cc1 [Example 136, 4-Amino-1-(2-methanesulfonyl-benzenesulfonyl)-piperidine-4-carboxylic acid (4-ethyl-phenyl)-amide] |
| 120 | CCc1ccc(NC(=O)C2(N)CCN(S(=O)(=O)c3ccc(F)cc3Cl)CC2)cc1 [Example 146, 4-Amino-1-(2-chloro-4-fluoro-benzenesulfonyl)-piperidine-4-carboxylic acid (4-ethyl-phenyl)-amide] |
| 230 | CC(C)c1ccc(CN2CCC(N)(C(=O)Nc3ccc(C(C)C)cc3)CC2)cc1 [Example 115, 4-Amino-1-(4-isopropyl-benzyl)-piperidine-4-carboxylic acid (4-isopropyl-phenyl)-amide; hydrochloride] |
| 50 | CCc1ccc(NC(=O)C2(N)CCN(S(=O)(=O)c3ccccc3OC(F)(F)F)CC2)cc1 [Example 149, 4-Amino-1-(2-trifluoromethoxy-benzenesulfonyl)-piperidine-4-carboxylic acid (4-ethyl-phenyl)-amide] |
| 790 | O=C(CC1CCCC1)N1CCC(O)(C(=O)Nc2ccc(OC(F)(F)F)cc2)CC1 [Example 53, 1-(2-Cyclopentyl-acetyl)-4-hydroxy-piperidine-4-carboxylic acid (4-trifluoromethoxy-phenyl)-amide] |
| 120 | CC(C)c1ccc(NC(=O)C2(N)CCN(C(=O)Nc3ccc(C(C)(C)C)cc3)CC2)cc1 [Example 89, 4-Amino-piperidine-1,4-dicarboxylic acid 1-[(4-tert-butyl-phenyl)-amide]-4-[(4-isopropyl-phenyl)-amide]; hydrochloride] |
| 100 | CN(C(=O)C1(O)CCN(S(=O)(=O)c2ccccc2C(F)(F)F)CC1)c1ccc(OC(F)(F)F)cc1 [Example 73, 4-Hydroxy-1-(2-trifluoromethyl-benzenesulfonyl)-piperidine-4-carboxylic acid methyl-(4-trifluoromethoxy-phenyl)-amide] |
| 40 | CC(C)c1ccc(NC(=O)C2(N)CCN(S(=O)(=O)c3ccccc3F)CC2)cc1 [Example 118, 4-Amino-1-(2-fluoro-benzenesulfonyl)-piperidine-4-carboxylic acid (4-isopropyl-phenyl)-amide] |
| 120 | CCc1ccc(NC(=O)C2(N)CCN(S(=O)(=O)c3ccc(C)cc3)CC2)cc1 [Example 81, 4-Amino-1-(toluene-4-sulfonyl)-piperidine-4-carboxylic acid (4-ethyl-phenyl)-amide] |
| 50 | Cc1ccc(S(=O)(=O)N2CCC(N)(C(=O)Nc3ccc(C(C)(C)C)cc3)CC2)cc1 [Example 77, 4-Amino-1-(toluene-4-sulfonyl)-piperidine-4-carboxylic acid (4-tert-butyl-phenyl)-amide; hydrochloride] |
| 60 | NC1(C(=O)Nc2ccc3c(c2)CCC3)CCN(S(=O)(=O)c2ccccc2Cl)CC1 [Example 99, 4-Amino-1-(2-chloro-benzenesulfonyl)-piperidine-4-carboxylic acid indan-5-ylamide] |
| 460 | CCc1ccc(NC(=O)C2(N)CCN(C(=O)OCc3ccccc3)CC2)cc1 [Example 132, 4-Amino-4-(4-ethyl-phenylcarbamoyl)-piperidine-1-carboxylic acid benzyl ester] |
| 720 | CC(C)c1ccc(NC(=O)C2(O)CCN(C(=O)CC(C)(C)C)CC2)cc1 [Example 4, 1-(3,3-Dimethyl-butyryl)-4-hydroxy-piperidine-4-carboxylic acid (4-isopropyl-phenyl)-amide] |
| 430 | CCc1ccc(NC(=O)C2(N)CCN(S(=O)(=O)c3ccc(C(F)(F)F)cc3Cl)CC2)cc1 [Example 147, 4-Amino-1-(2-chloro-4-trifluoromethyl-benzenesulfonyl)-piperidine-4-carboxylic acid (4-ethyl-phenyl)-amide] |
| 90 | CN(C(=O)C1(O)CCN(S(=O)(=O)c2ccccc2F)CC1)c1ccc(OC(F)(F)F)cc1 [Example 70, 1-(2-Fluoro-benzenesulfonyl)-4-hydroxy-piperidine-4-carboxylic acid methyl-(4-trifluoromethoxy-phenyl)-amide] |
| 110 | CCc1ccc(NC(=O)C2(N)CCN(Cc3ccccc3OC(F)F)CC2)cc1 [Example 155, 4-Amino-1-(2-difluoromethoxy-benzyl)-piperidine-4-carboxylic acid (4-ethyl-phenyl)-amide] |
| 100 | O=C(Nc1ccc(OC(F)(F)F)cc1)C1(O)CCN(S(=O)(=O)c2ccccc2F)CC1 [Example 61, 1-(2-Fluoro-benzenesulfonyl)-4-hydroxy-piperidine-4-carboxylic acid (4-trifluoromethoxy-phenyl)-amide] |
| 200 | COc1ccc(S(=O)(=O)N2CCC(O)(C(=O)Nc3ccc(C(C)C)cc3)CC2)cc1 [Example 8, 4-Hydroxy-1-(4-methoxy-benzenesulfonyl)-piperidine-4-carboxylic acid (4-isopropyl-phenyl)-amide] |
| 880 | CCN(C(=O)C1(O)CCN(S(=O)(=O)c2ccccc2C)CC1)c1ccc(OC(F)(F)F)cc1 [Example 74, 4-Hydroxy-1-(toluene-2-sulfonyl)-piperidine-4-carboxylic acid ethyl-(4-trifluoromethoxy-phenyl)-amide] |
| 250 | CC(C)c1ccc(NC(=O)C2(N)CCN(C(=O)c3ccc(C(F)(F)F)cc3)CC2)cc1 [Example 126, 4-Amino-1-(4-trifluoromethyl-benzoyl)-piperidine-4-carboxylic acid (4-isopropyl-phenyl)-amide] |
| 140 | CCc1ccc(NC(=O)C2(N)CCN(S(=O)(=O)CC3CCCCC3)CC2)cc1 [Example 144, 4-Amino-1-cyclohexylmethanesulfonyl-piperidine-4-carboxylic acid (4-ethyl-phenyl)-amide] |
| 210 | CC(C)c1ccc(NC(=O)C2(O)CCN(C(=O)Nc3ccc(C(F)(F)F)cc3)CC2)cc1 [Example 6, 4-Hydroxy-piperidine-1,4-dicarboxylic acid 4-[(4-isopropyl-phenyl)-amide] 1-[(4-trifluoromethyl-phenyl)-amide]] |
| 330 | O=C(Nc1ccc(OC(F)(F)F)cc1)C1(O)CCN(S(=O)(=O)c2cccs2)CC1 [Example 57, 4-Hydroxy-1-(thiophene-2-sulfonyl)-piperidine-4-carboxylic acid (4-trifluoromethoxy-phenyl)-amide] |
| 110 | NC1(C(=O)Nc2ccc(OCC(F)(F)F)cc2)CCN(S(=O)(=O)c2ccccc2Cl)CC1 [Example 105, 4-Amino-1-(2-chloro-benzenesulfonyl)-piperidine-4-carboxylic acid [4-(2,2,2-trifluoro-ethoxy)-phenyl]-amide] |
| 160 | CC(C)c1ccc(NC(=O)C2(N)CCN(Cc3ccc(F)cc3)CC2)cc1 [Example 121, 4-Amino-1-(4-fluoro-benzyl)-piperidine-4-carboxylic acid (4-isopropyl-phenyl)-amide; hydrochloride] |
| 750 | CCN(C(=O)C1(O)CCN(S(=O)(=O)c2ccccc2F)CC1)c1ccc(OC(F)(F)F)cc1 [Example 75, 1-(2-Fluoro-benzenesulfonyl)-4-hydroxy-piperidine-4-carboxylic acid ethyl-(4-trifluoromethoxy-phenyl)-amide] |
| 330 | CC(C)(C)CS(=O)(=O)N1CCC(O)(C(=O)Nc2ccc(OC(F)(F)F)cc2)CC1 [Example 55, 1-(2,2-Dimethyl-propane-1-sulfonyl)-4-hydroxy-piperidine-4-carboxylic acid (4-trifluoromethoxy-phenyl)-amide] |
| 80 | CCc1ccc(NC(=O)C2(N)CCN(S(=O)(=O)c3ccccc3C)CC2)cc1 [Example 135, 4-Amino-1-(toluene-2-sulfonyl)-piperidine-4-carboxylic acid (4-ethyl-phenyl)-amide] |
| 80 | CC(C)(C)c1ccc(NC(=O)C2(O)CCN(Cc3ccccc3Cl)CC2)cc1 [Example 44] |
| 230 | CC(C)(C)c1ccc(NC(=O)C2(O)CCN(Cc3ccccc3C(F)(F)F)CC2)cc1 [Example 47, 4-Hydroxy-1-(2-trifluoromethyl-benzyl)-piperidine-4-carboxylic acid (4-tert-butyl-phenyl)-amide] |
